Source: PMC8860572 (Nucleic Acids Research, 2022)
“Also recorded” adds a separate entry of the source. Read-outs that look alike come from different tables or passages of the source.

Tests used:
nsp14–nsp10 = nsp14–nsp10 (Severe acute respiratory syndrome coronavirus 2, UniProt P0DTD1); type: binding, SARS-CoV-2; settings: for ΔTm: 1 µM nsp14-10; for effect on thermal stability / aggregation of nsp14–nsp10 (words): 3.1-100 µM compound
[1] = target: SARS-CoV-2 nsp14–nsp10 complex (nuclease activity) (Severe acute respiratory syndrome coronavirus 2, UniProt P0DTD1); assay: biochemical; settings: for inhibition of substrate digestion in gel-based assay: 100 nM nsp14–nsp10, compound up to 100 μM; for IC50 / IC50 value: 100 nM nsp14–nsp10, 10 nM 20-mer ssRNA, 37°C 45 min, approximate/preliminary
[2] = target: nsp14–nsp10 co-incubated with nsp8 (Severe acute respiratory syndrome coronavirus 2, UniProt P0DTD1); assay: gel-based nuclease inhibition assay with nsp8 stimulation; type: biochemical, SARS-CoV-2; settings: 100 nM nsp14-nsp10 and 300 nM nsp8, compound 3-100 μM
[3] = target: guanine N7 methyl transferase (MTase) activity of nsp14–nsp10 (Severe acute respiratory syndrome coronavirus 2, UniProt P0DTD1); assay: HTRF methyltransferase assay; type: biochemical, SARS-CoV-2; settings: 2.5, 5 and 10 μM compound; 10 nM nsp14-nsp10, 5 μM SAM, 0.14 mM GP3G
[4] = target: SARS-CoV-2 nsp14–nsp10 RNase activity (Severe acute respiratory syndrome coronavirus 2, UniProt P0DTD1); type: biochemical
SARS-CoV-2 = settings: cited from earlier work
[5] = Supplementary Table 2, in vitro inhibition of nsp14-nsp10 nuclease activity, result in words
[6] = 125 nM (ions) or 250 nM (chelators) nsp14-nsp10, ions 0.05-10 mM, chelators 0.03-1 mM

Compound | ΔTm (nsp14–nsp10; 3.1 µM compound) | ΔTm (nsp14–nsp10; 6.3 µM compound) | ΔTm (nsp14–nsp10; 12.5 µM compound) | ΔTm (nsp14–nsp10; 25 µM compound) | ΔTm (nsp14–nsp10; 50 µM compound) | ΔTm (nsp14–nsp10; 100 µM compound) | other results
COc1ccc2c3c(cccc13)C(=O)N(O)C2=O [A-1] | 0.02 °C | 0.31 °C | 0.25 °C | 0.17 °C | 0.29 °C | 0.60 °C | inhibition of substrate digestion in gel-based assay [1]: qualitatively complete inhibition of substrate digestion
COc1cc2c3c(cccc3c1)C(=O)N(O)C2=O [A-2] | 0.01 °C | 0.26 °C | 0.22 °C | 0.21 °C | 0.36 °C |  | inhibition of nuclease activity in presence of nsp8 [2]: inhibition was still observed, albeit at higher inhibitor concentrations; MTase inhibition [3]: demonstrated MTase inhibition activity; IC50 [1]: 20.7 ± 0.5 µM; inhibition of substrate digestion in gel-based assay [1]: qualitatively complete inhibition of substrate digestion; Level of inhibition [1, 5]: Yes
O=c1[nH]c2ccccc2c(=O)n1O [A-3] | -0.10 °C | 0.13 °C | 0.31 °C | 1.33 °C | 0.36 °C |  | 
O=c1c2ccccc2n(Cc2ccccc2)c(=O)n1O [A-4] | -0.06 °C | 0.11 °C | 0.27 °C | -1.33 °C | 0.35 °C | 0.62 °C | IC50 [1]: 94.1 ± 27 µM; Level of inhibition [1, 5]: Yes
O=c1c2ccccc2[nH]c(=S)n1O [A-5, 3-Hydroxy-2-thioxo-2,3-dihydroquinazolin-4-one] | 0.00 °C | 0.24 °C | 0.19 °C | 0.00 °C | 0.38 °C | 0.61 °C | IC50 value [1]: incomplete inhibition
O=C(O)C1=CC(=C(c2ccc(O)c(C(=O)O)c2)c2ccc(O)c(C(=O)O)c2)C=CC1=O [ATA, Aurintricarboxylic acid, reference compound] | 0.33 °C | 0.27 °C | 0.85 °C | 3.08 °C |  |  | effect on thermal stability / aggregation of nsp14–nsp10 (words) (nsp14–nsp10): destabilizing effect on thermal stability of nsp14–nsp10; effect on thermal stability / aggregation of nsp14–nsp10 (words) (nsp14–nsp10; listed as aurintricarboxylic acid): appears to aggregate the protein at high concentration; Level of inhibition [1, 5]: Yes
O=C(O)c1nc(-c2ccccc2)nc(O)c1O [B-1, 5,6-Dihydroxyl-2-phenylpyrimidine-4-carboxylic acid] | -0.15 °C | 0.02 °C | 0.08 °C | -0.57 °C | 0.23 °C | 0.46 °C | inhibition of nuclease activity in presence of nsp8 [2]: inhibition was still observed, albeit at higher inhibitor concentrations; MTase inhibition [3]: demonstrated MTase inhibition activity; also recorded: most potent compound; IC50 [1]: 32.2 ± 4.5 µM; Level of inhibition [1, 5]: Yes
O=C(O)CN(CCOCCOCCN(CC(=O)O)CC(=O)O)CC(=O)O [EGTA, ethylene glycol-bis (b-aminoethyl ether)-N,N,N’,N’-tetraacetic acid, reference compound] |  |  |  |  |  |  | effect on RNase activity of nsp14–nsp10 [4, 6]: inhibitory
Cc1ccc(-n2sc3ccccc3c2=O)cc1 [PBIT, reference compound] |  |  |  |  |  |  | IC50 value [1]: IC50 not reached under assay conditions
CCN(CC)C(=S)SSC(=S)N(CC)CC [disulfiram, reference compound] | -0.53 °C | -0.58 °C | -0.13 °C | -0.42 °C | -0.40 °C | 0.33 °C | 
O=c1c2ccccc2[se]n1-c1ccccc1 [ebselen, reference compound] |  |  |  |  |  |  | inhibition of nuclease activity in presence of nsp8 [2]: inhibition was still observed, albeit at higher inhibitor concentrations; MTase inhibition [3]: demonstrated MTase inhibition activity; antiviral activity in cell-based assays (SARS-CoV-2): exhibited antiviral activity in cell-based assays; Level of inhibition [1]: Yes
[Mg] [magnesium] |  |  |  |  |  |  | effect on RNase activity of nsp14–nsp10 [4, 6]: promoted the RNase activity
[Mn+2] [manganese] |  |  |  |  |  |  | effect on RNase activity of nsp14–nsp10 [4]: promoted the RNase activity
c1cnc2c(c1)ccc1cccnc12 [o-phenanthroline, reference compound] |  |  |  |  |  |  | effect on RNase activity of nsp14–nsp10 [4, 6]: inhibitory
Cc1nnc(C(=O)NC(C)(C)c2nc(C(=O)NCc3ccc(F)cc3)c(O)c(=O)n2C)o1 [raltegravir, reference compound] |  |  |  |  |  |  | antiviral activity in cell-based assays (SARS-CoV-2): did not; IC50 [1]: 24.4 ± 2.7 µM
CN(C)C(=S)SSC(=S)N(C)C [thiram, reference compound] | -0.53 °C | -0.46 °C | -0.22 °C | -0.42 °C | -0.43 °C | -0.21 °C | IC50 [1]: 48.2 ± 1.8 µM; Level of inhibition [1, 5]: Yes
[Cl-].[Cl-].[Zn+2] [zinc] |  |  |  |  |  |  | effect on RNase activity of nsp14–nsp10 [4]: inhibitory
